Earlier results as cited in paper PMC8679839, “Interleukin‐2‐inducible T‐cell kinase (Itk) signaling regulates potent noncanonical regulatory T cells” (Clinical and Translational Medicine, 2021).

Tested on: Tregs
Description: Tregs are critical for the maintenance of tolerance, and transfer of Treg cells can ameliorate GVHD by restoring defective tolerance mechanisms.[41] One of the biggest challenges is to isolate functional Tregs in large numbers for immunotherapy.[42] This challenge is due to the low number of Tregs in peripheral blood.[4] Given their low numbers in the blood, it is difficult to obtain enough Tregs in the clinic for use as a therapy. If the number of collected canTregs and ncTregs could be increased for use in GVHD patients, such patients could be better protected from GVHD and other autoimmune ...

Q: What does the source list for `CO[C@H]1C[C@@H]2CC[C@@H](C)[C@@](O)(O2)C(=O)C(=O)N2CCCC[C@H]2C(=O)O[C@H]([C@H](C)C[C@@H]2CC[C@@H](O)[C@H](OC)C2)CC(=O)[C@H](C)/C=C(\C)[C@@H](O)[C@@H](OC)C(=O)[C@H](C)C[C@H](C)/C=C/C=C/C=C/1C` [rapamycin]?
A: Treg number after in vitro expansion: increases Tregs; Treg suppressive function after in vitro expansion: reduces suppressive function
